Patent US10231472B2, “Zilpaterol animal premix formulation” (Intervet Inc., priority 2015, dated 2019)
Where a name gives a salt, the structure may show the parent alone.

Experiments:
[1] = Solubility of zilpaterol HCl in solvents; type: physicochemical
Protocol: For some drugs that have a good solubility profile formulations can be prepared by dissolving the drug into a solvent and then mixing the resulting solution with additional excipient/carriers to prepare a suitable dosage form (premix, tablets, etc.). This approach works best when the drug concentration is very low and the drug has good solubility. If an excess amount of liquid is added during manufacture a wet mass can be formed that is difficult to process and needs to be dried to remove excess solvent. Drying adds additional cost and complexity to the manufacturing process.
(§1) However since solubility of the drug was poor in propylene glycol, a significant additional amount of propylene glycol was needed (27.6%) to fully solubilize the drug. Since propylene glycol is viscous/sticky, this larger amount of propylene glycol could not be added to the corn cob carrier without causing the product to be sticky which results in poor flow properties. To address this problem, a premix containing only 6% propylene glycol and 2% water was prepared by heating the liquid mixture of zilpaterol HCl to a high temperature and creating a supersaturation of zilpaterol HCl in the propylene glycol/water vehicle. This was successful in fully solubilizing the zilpaterol HCl without needing to add additional liquids. […] When this hot supersaturated solution is added to a dry carrier, it is easily absorbed and mixed and the combination becomes dry and free flowing. Excellent uniformity is obtained, and product safety is improved since free solid drug particles are avoided.

[2] = Stability of zilpaterol in liquid vehicles at high temperature; type: physicochemical
Protocol: as §1
Propylene glycol is the preferred solvent.

solubility of the drug in premix liquid ([1]; premix with 0.8% zilpaterol HCl, 6% propylene glycol and 2% water, without heating): not fully soluble | solubility in propylene glycol ([1]; propylene glycol): 2.9% | solubility ([1]; water): 130 mg/mL | stability in propylene glycol alone ([2]; after 45 days at 60° C., propylene glycol alone): 95.2% | stability in solution, temperature ([2]; supersaturated solution in propylene glycol/water vehicle): ≤ 90 °C
Structure (SMILES): CC(C)NC1CCn2c(=O)[nH]c3cccc(c32)C1O (centres unmarked) [Zilpaterol HCl, 4,5,6,7-tetrahydro-7-hydroxy-6-(isopropylamino) imidazo[4,5,1-jk]-[1]benzazepin-2(1H)-one]
